Measured values as given in patent US11414424B2, “Cardiac sarcomere inhibitors” (Cytokinetics, Inc., priority 2018, dated 2022).

System: bovine cardiac myofibrils
Assay: Myofibril assay: PK/LDH-coupled steady-state ATPase activity of skinned bovine cardiac myofibrils
Assay type: biochemical
Settings: Ca2+ activating to 75% of maximal rate
In short: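 Steady-state ATPase of detergent-skinned bovine left-ventricular myofibrils (1 mg/mL), PK/LDH-coupled NADH read at 340 nm, in PIPES/MgCl2 buffer pH 6.8 with 50 μM ATP, 0.6 mM EGTA and CaCl2 set for 50% or 75% activation. Inhibition of activity measured.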

Row | SMILES | CDMF75 IC15
1 | CC1(C2C(=O)N(c3ncc(Cl)cc3F)CC(=O)N2Cc2ccc(Cl)cc2)COC1 (stereo not shown) [Compound 624, 1-(5-chloro-3-fluoropyridin-2-yl)-4-(4-chlorobenzyl)-3-(3-methyloxetan-3-yl)-piperazine-2,5-dione] | 2.0 µM
2 | CC(=O)NC[C@H]1C(=O)N(c2ncc(Cl)cc2F)CC(=O)N1Cc1ccc(C(F)(F)F)cc1 [Compound 625, (S)-N-((4-(5-chloro-3-fluoropyridin-2-yl)-3,6-dioxo-1-(4-(trifluoro-methyl)benzyl)piperazin-2-yl)methyl)acetamide] | 14.5 µM
3 | CC(=O)NC[C@@H]1C(=O)N(c2ncc(Cl)cc2F)CC(=O)N1Cc1ccc(C(F)(F)F)cc1 [Compound 626, (R)-N-((4-(5-chloro-3-fluoropyridin-2-yl)-3,6-dioxo-1-(4-(trifluoro-methyl)benzyl)piperazin-2-yl)methyl)acetamide] | >39 µM
4 | CC(=O)NCC1C(=O)N(c2ncc(Cl)cc2F)CC(=O)N1Cc1ccc(C(F)(F)F)cc1 (stereo not shown) [Compound 629, N-((4-(5-chloro-3-fluoro-pyridin-2-yl)-3,6-dioxo-1-(4-(trifluoromethyl)-benzyl)piperazin-2-yl)-methyl)acetamide] | 32.4 µM
5 | CC(=O)NCC1(C)C(=O)N(c2ncc(Cl)cc2F)CC(=O)N1Cc1ccc(Cl)cc1 (stereo not shown) [Compound 631, N-((4-(5-chloro-3-fluoro-pyridin-2-yl)-1-(4-chloro-benzyl)-2-methyl-3,6-dioxopiperazin-2-yl)-methyl)acetamide] | 17.3 µM
6 | CC(=O)NCC1C(=O)N(c2ncc(Cl)cc2F)CC(=O)N1Cc1ccc(Cl)cc1 (stereo not shown) [Compound 632, N-((4-(5-chloro-3-fluoro-pyridin-2-yl)-1-(4-chloro-benzyl)-3,6-dioxopiperazin-2-yl)methyl)acetamide] | 31.7 µM
7 | O=C1C(C2COC2)N(Cc2ccc(Cl)cc2)C(=O)CN1c1ncc(Cl)cc1F (stereo not shown) [Compound 633, 1-(5-chloro-3-fluoropyridin-2-yl)-4-(4-chlorobenzyl)-3-(oxetan-3-yl)piperazine-2,5-dione] | 1.3 µM
8 | CC1(C(F)F)C(=O)N(c2ncc(Cl)cc2F)CC(=O)N1Cc1ccc(Cl)cc1 (stereo not shown) [Compound 636, 1-(5-chloro-3-fluoropyridin-2-yl)-4-(4-chlorobenzyl)-3-(difluoromethyl)-3-methylpiperazine-2,5-dione] | 1.3 µM
9 | O=C1C(CC2COC2)N(Cc2ccc(C(F)(F)F)cc2)C(=O)CN1c1ncc(Cl)cc1F (stereo not shown) [Compound 639, 1-(5-chloro-3-fluoropyridin-2-yl)-3-(oxetan-3-ylmethyl)-4-(4-(trifluoromethyl)-benzyl)piperazine-2,5-dione] | 1.4 µM
10 | O=C1C(CC2COC2)N(Cc2ccc(Cl)cc2)C(=O)CN1c1ncc(Cl)cc1F (stereo not shown) [Compound 640, 1-(5-chloro-3-fluoropyridin-2-yl)-4-(4-chlorobenzyl)-3-(oxetan-3-ylmethyl)-piperazine-2,5-dione] | 1.6 µM
11 | CNC(=O)N1CC(C2C(=O)N(c3ncc(Cl)cc3F)CC(=O)N2Cc2ccc(C(F)(F)F)cc2)C1 (stereo not shown) [Compound 641, 3-(4-(5-chloro-3-fluoro-pyridin-2-yl)-3,6-dioxo-1-(4-(trifluoromethyl)-benzyl)piperazin-2-yl)-N-methylazetidine-1-carboxamide] | 12.2 µM
12 | CNC(=O)N1CC(C2C(=O)N(c3ncc(Cl)cc3F)CC(=O)N2Cc2ccc(Cl)cc2)C1 (stereo not shown) [Compound 642, 3-(4-(5-chloro-3-fluoro-pyridin-2-yl)-1-(4-chloro-benzyl)-3,6-dioxopiperin-2-yl)-N-methylazetidine-1-carboxamide] | 10.9 µM
13 | CC(=O)N1CC(C2C(=O)N(c3ncc(Cl)cc3F)CC(=O)N2Cc2ccc(C(F)(F)F)cc2)C1 (stereo not shown) [Compound 643, 3-(1-acetylazetidin-3-yl)-1-(5-chloro-3-fluoropyridin-2-yl)-4-(4-(trifluoro-methyl)benzyl)piperazine-2,5-dione] | 5.8 µM
14 | CC(=O)N1CC(C2C(=O)N(c3ncc(Cl)cc3F)CC(=O)N2Cc2ccc(Cl)cc2)C1 (stereo not shown) [Compound 644, 3-(1-acetylazetidin-3-yl)-1-(5-chloro-3-fluoropyridin-2-yl)-4-(4-chlorobenzyl)-piperazine-2,5-dione] | 6.8 µM
15 | Cc1cc(Cl)cnc1N1CC(=O)N(Cc2ccc(C(F)(F)F)cc2)C(C2COC2)C1=O (stereo not shown) [Compound 645, 1-(5-chloro-3-methylpyridin-2-yl)-3-(oxetan-3-yl)-4-(4-(trifluoromethyl)benzyl)-piperazine-2,5-dione] | 5.8 µM
16 | O=C1C(C2COC2)N(Cc2ccc(F)cc2)C(=O)CN1c1ncc(Cl)cc1F (stereo not shown) [Compound 646, 1-(5-chloro-3-fluoropyridin-2-yl)-4-(4-fluorobenzyl)-3-(oxetan-3-yl)piperazine-2,5-dione] | 3.3 µM
17 | O=C1C(C2COC2)N(Cc2ccc(F)c(F)c2)C(=O)CN1c1ncc(Cl)cc1F (stereo not shown) [Compound 647, 1-(5-chloro-3-fluoropyridin-2-yl)-4-(3,4-difluorobenzyl)-3-(oxetan-3-yl)piperazine-2,5-dione] | 2.1 µM

Now from value to compound:

Row | CDMF75 IC15 | SMILES
18 | 2.0 µM | O=C1C(C2COC2)N(Cc2ccc(Cl)c(F)c2)C(=O)CN1c1ncc(Cl)cc1F (stereo not shown) [Compound 648, 4-(4-chloro-3-fluorobenzyl)-1-(5-chloro-3-fluoropyridin-2-yl)-3-(oxetan-3-yl)-piperazine-2,5-dione]
19 | 2.9 µM | O=C1C(C2COC2)N(Cc2ccc(C(F)(F)F)c(F)c2)C(=O)CN1c1ncc(Cl)cc1F (stereo not shown) [Compound 649, 1-(5-chloro-3-fluoropyridin-2-yl)-4-(3-fluoro-4-(trifluoromethyl)benzyl)-3-(oxetan-3-yl)piperazine-2,5-dione]
20 | 2.5 µM | O=C1C(C2COC2)N(Cc2ccc(C(F)F)cc2)C(=O)CN1c1ncc(Cl)cc1F (stereo not shown) [Compound 650, 1-(5-chloro-3-fluoropyridin-2-yl)-4-(4-(difluoro-methyl)benzyl)-3-(oxetan-3-yl)piperazine-2,5-dione]
21 | 7.3 µM | Cc1cc(Cl)cnc1N1CC(=O)N(Cc2ccc(C(F)(F)F)cc2)C(CC2COC2)C1=O (stereo not shown) [Compound 651, 1-(5-chloro-3-methylpyridin-2-yl)-3-(oxetan-3-ylmethyl)-4-(4-(trifluoromethyl)-benzyl)piperazine-2,5-dione]
22 | 9.0 µM | Cc1cc(Cl)cnc1N1CC(=O)N(Cc2ccc(C(F)(F)F)cc2)C(C2(C)COC2)C1=O (stereo not shown) [Compound 652, 1-(5-chloro-3-methylpyridin-2-yl)-3-(3-methyloxetan-3-yl)-4-(4-(trifluoromethyl)-benzyl)piperazine-2,5-dione]
23 | 19.9 µM | CC(=O)N1CC(C2C(=O)N(c3ncc(Cl)cc3C)CC(=O)N2Cc2ccc(C(F)(F)F)cc2)C1 (stereo not shown) [Compound 653, 3-(1-acetylazetidin-3-yl)-1-(5-chloro-3-methylpyridin-2-yl)-4-(4-(trifluoromethyl)-benzyl)piperazine-2,5-dione]
24 | 5.3 µM | Cc1cc(Cl)cnc1N1CC(=O)N(Cc2ccc(Cl)cc2)C(C2COC2)C1=O (stereo not shown) [Compound 654, 1-(5-chloro-3-methylpyridin-2-yl)-4-(4-chlorobenzyl)-3-(oxetan-3-yl)piperazine-2,5-dione]
25 | 7.0 µM | Cc1cc(Cl)cnc1N1CC(=O)N(Cc2ccc(Cl)cc2)C(CC2COC2)C1=O (stereo not shown) [Compound 655, 1-(5-chloro-3-methylpyridin-2-yl)-4-(4-chlorobenzyl)-3-(oxetan-3-ylmethyl)-piperazine-2,5-dione]
26 | 9.9 µM | CC1(CCC(N)=O)C(=O)N(c2ncc(Cl)cc2F)CC(=O)N1Cc1ccc(C(F)(F)F)cc1 (stereo not shown) [Compound 656, 3-(4-(5-chloro-3-fluoro-pyridin-2-yl)-2-methyl-3,6-dioxo-1-(4-(trifluoro-methyl)benzyl)piperazin-2-yl)propanamide]
27 | 1.4 µM | CC1(C(F)F)C(=O)N(c2ncc(Cl)cc2F)CC(=O)N1Cc1ccc(C(F)(F)F)cc1 (stereo not shown) [Compound 657, 1-(5-chloro-3-fluoropyridin-2-yl)-3-(difluoromethyl)-3-methyl-4-(4-(trifluoro-methyl)-benzyl)piperazine-2,5-dione]
28 | 0.84 µM | Cc1cc(Cl)cnc1N1CC(=O)N(Cc2ccc(Cl)cc2)[C@@H](C(C)C)C1=O [Compound 660, (S)-1-(5-chloro-3-methylpyridin-2-yl)-4-(4-chlorobenzyl)-3-isopropyl-piperazine-2,5-dione]
29 | 17.0 µM | CC(=O)N1CC(CC2C(=O)N(c3ncc(Cl)cc3F)CC(=O)N2Cc2ccc(C(F)(F)F)cc2)C1 (stereo not shown) [Compound 661, 3-((1-acetylazetidin-3-yl)methyl)-1-(5-chloro-3-fluoropyridin-2-yl)-4-(4-(trifluoromethyl)benzyl)-piperazine-2,5-dione]
30 | 16.4 µM | CC(=O)N1CC(CC2C(=O)N(c3ncc(Cl)cc3F)CC(=O)N2Cc2ccc(Cl)cc2)C1 (stereo not drawn) [Compound 662, 3-((1-acetylazetidin-3-yl)methyl)-l-(5-chloro-3-fluoropyridin-2-yl)-4-(4-chlorobenzyl)piperazine-2,5-dione]
31 | 7.3 µM | Cc1cc(Cl)cnc1N1CC(=O)N(Cc2ccc(Cl)cc2)C(C2(C)COC2)C1=O (stereo not shown) [Compound 663, 1-(5-chloro-3-methylpyridin-2-yl)-4-(4-chlorobenzyl)-3-(3-methyloxetan-3-yl)-piperazine-2,5-dione]
32 | 2.9 µM | Cc1ccc(CN2C(=O)CN(c3ncc(Cl)cc3F)C(=O)C2C2COC2)cc1F (stereo not shown) [Compound 664, 1-(5-chloro-3-fluoropyridin-2-yl)-4-(3-fluoro-4-methylbenzyl)-3-(oxetan-3-yl)piperazine-2,5-dione]
33 | 7.3 µM | CCc1ccc(CN2C(=O)CN(c3ncc(Cl)cc3F)C(=O)C2C2COC2)cc1 (stereo not shown) [Compound 665, 1-(5-chloro-3-fluoropyridin-2-yl)-4-(4-ethylbenzyl)-3-(oxetan-3-yl)piperazine-2,5-dione]
34 | 2.3 µM | Cc1ccc(CN2C(=O)CN(c3ncc(Cl)cc3F)C(=O)C2C2COC2)cc1 (stereo not shown) [Compound 666, 1-(5-chloro-3-fluoropyridin-2-yl)-4-(4-methylbenzyl)-3-(oxetan-3-yl)piperazine-2,5-dione]
